The subject of the data set is Kornkäfer (sitophilus granarius L). Briefly: whole plant or invertebrate. Type of data set: in vivo. As to conditions: for mortality at 1000 µg/mL / mortality at 100 µg/mL: Sitophilus granarius; for mortality at 1000 µg/mL: read-out: Wirksamkeit in % Substanz allein; for % Wirkung Substanz +Ripcord / % Wirkung Substanz +Talcord: Pyrethroid : Amin 1 : 10, amine 0,1 mg/ml; for mortality at 100 µg/mL: read-out: % Wirkung Substanz allein. As for the experimental part: Test von tertiären, heterocyclischen Aminen allein und im Gemisch mit Pyrethroiden an Kornkäfern (sitophilus granarius L)
In Petrischalen mit 15 cm Durchmesser mit talcumbepuderten Seitenwänden, um das Entfliehen der Kornkäfer zu verhindern, wurden jeweils 2 ml der Acetonlösungen einpipettiert und durch vorsichtiges Schwenken der Schalen gleichmäßig auf dem Boden verteilt. Nach dem Abdampfen des Acetons und dem Antrocknen der Beläge wurden in jede Schale 25 Kornkäfer eingezählt. Nach einer Stunde wurde jeweils ein 12,5 cm Rundfilter in die Schalen eingelegt, um den Käfern das Befreien aus der Rückenlage zu ermöglichen, was auf der glatten Glasplatte nicht möglich ist. Die lichtscheuen Käfer verkrochen sich mit Vorliebe unter die Filter und blieben so ständig mit den Wirkstoffbelägen in Kontakt. Alle Versuche liefen mit 3 Wiederholungen. Nach 3 h wurden die toten Käfer ausgezählt.
In der Tabelle 3 ist jeweils der Durchschnitt der Summe der 4 Einzelwerte angegeben. 25 tote Kornkäfer entsprechen dabei einer Wirkung von 100 %. Die Temperaturen betrugen während der Tests im Durchschnitt 19 - 21°C. Der synergistische Faktor berechnet sich analog wie in Beispiel 1 angegeben.
Die zu prüfenden tertiären, heterocyclischen Amine wurden - mit 1 mg Wirkstoff pro ml als Acetonlösungen angesetzt. Sie wurden im Verhältnis 1 : 1 mit Ripcord bzw. Talcord, die mit 0,01 mg Wirkstoff pro ml als Acetonlösung vorlagen, gemischt. Die Einzelkomponenten wurden im Verhältnis 1 : 1 mit Aceton gemischt.
Auch bei diesen Versuchen zeigten die Kontrollversuche stets bei Versuchsende eine Mortalität der Kornkäfer von 0 %.
Die synergistische Wirkung der tertiären, heterocyclischen Amine auf die Pyrethroide ist auch dann noch deutlich, wenn das Amin in wesentlich niederen Aufwandmengen eingesetzt wird, als dies in Beispiel 3 beschrieben wurde. Die Ergebnisse sind in der Tabelle 4 zusammengestellt. Dieser Versuch zeigt auch, daß Amine mit insektiziden Eigenschaften, wenn sie in Konzentrationen unterhalb ihres insektiziden Wirkungsbereiches eingesetzt werden, immer noch gute synergistische Wirkungen im Gemisch mit Pyrethroiden zeigen. Die Versuche wurden wie im Beispiel 3 beschrieben mit Kornkäfern durchgeführt. Es wurden lediglich die Konzentrationen der eingesetzten tertiären, heterocyclischen Amine geändert. Für die Verdünnung Pyrethroid : Amin = 1 : 10 wurde das Amin mit 0,1 mg Wirkstoff/ml Acetonlösung eingesetzt. Für die Verdünnung 1 : 5 mit 0,05 mg Wirkstoff/ml.

[1] abbreviates: amine 1 mg/ml + Ripcord 0,01 mg/ml.
[2] abbreviates: amine 1 mg/ml + Talcord 0,01 mg/ml.
Setting [3] is: amine 1 mg/ml in Aceton mixed 1 : 1 with Aceton, 2 ml per dish, 25 weevils, dead counted after 3 h.
[4] abbreviates: amine 1 mg/ml mixed 1 : 1 with Ripcord 0,01 mg/ml, 3 h.
The mark [5] stands for this setting: amine 1 mg/ml mixed 1 : 1 with Talcord 0,01 mg/ml, 3 h.
[6] abbreviates: 3 h, amine 0,1 mg/ml (as for Pyrethroid : Amin 1 : 10).
Where [7] appears, read: sitophilus granarius, in vivo, 3 h.

For `CC(C)=CCCC(C)=CCN1CCCCC1` [N-1-Piperidino-3,7-dimethyl-octadien-(2,6)], the “Synergistischer Faktor bei Ripcord” value under setting [1] was 2,79. Under setting [2], the “Synergistischer Faktor bei Talcord” value is 8,37. For the same compound, under setting [3], the “Wirksamkeit in % Substanz allein” value came to 0%. Also, the “Wirksamkeit in % Substanz +Ripcord” value under setting [4] is on record as 88,0%. In addition, the “Wirksamkeit in % Substanz +Talcord” value under setting [5] is listed as 81,2%.
In the same order, the values of `C#CCN1CCCCC1CC` (stereo not drawn) [N-1-Propanrgyl-2-ethyl-piperidin] are 2,92, 3,84, 0%, 92,0% and 37,2%.
For `CCCCCCCCCCCCCCN1CCCC1` [N-1-Tetradecyl-pyrrolidin], under setting [3], the mortality at 1000 µg/mL came to 0%. In addition, the “Synergistischer Faktor bei Ripcord” value under setting [1] is 1,59. In addition, the “Wirksamkeit in % Substanz +Ripcord” value under setting [4] is 50,0%. The “Wirksamkeit in % Substanz +Talcord” value under setting [5] is 6,0%.
In the case of `CCCCCCCCCCCCCN1CCCC1` [N-1-Tridecyl-pyrrolidin], the mortality at 1000 µg/mL under setting [3] stood at 22.8%. For the same compound, the “Synergistischer Faktor bei Ripcord” value under setting [1] is recorded as 1,78. Further, the “Synergistischer Faktor bei Talcord” value under setting [2] is 2,19. Further, the “Wirksamkeit in % Substanz +Ripcord” value under setting [4] is 78,8%. Also, the “Wirksamkeit in % Substanz +Talcord” value under setting [5] is recorded as 44,0%.
As to `CCCCCCCCCCCN1CCCCCC1` [N-1-Undecyl-hexamethylenimin], where the note is “180 min”, the “% Wirkung Substanz +Ripcord” value is 92,0% and the “% Wirkung Substanz +Talcord” value is on record as 73,2%. For the same compound, the mortality at 100 µg/mL under setting [6] is 0%. Moreover, the mortality at 1000 µg/mL under setting [3] turned out to be 0%. The “Wirksamkeit in % Substanz +Ripcord” value under setting [4] is listed as 73,1%. The “Wirksamkeit in % Substanz +Talcord” value under setting [5] is reported as 81,2%.
`CCCCCCCCCCCN1CCCC1` [N-1-Undecyl-pyrrolidin]: where the note is “Pyrethroid : Amin 1 : 10”, the “Synergistischer Faktor bei Ripcord” value was 3,09 and the “Synergistischer Faktor bei Talcord” value was 7,42. Moreover, where the note is “180 min”, the “% Wirkung Substanz +Ripcord” value is on record as 97,2% and the “% Wirkung Substanz +Talcord” value is 72,0%. For the same compound, under setting [6], the mortality at 100 µg/mL came out at 0%.
With `c1ccc(OCCN2CCCCCC2)cc1` [N-2-Phenoxi-ethyl-(1)-hexa-methylenimin], the “Synergistischer Faktor bei Ripcord” value under setting [1] is given as 2,70. Further, the “Synergistischer Faktor bei Talcord” value under setting [2] is recorded as 5,09. The “Wirksamkeit in % Substanz allein” value under setting [3] is reported as 0%. In addition, the “Wirksamkeit in % Substanz +Ripcord” value under setting [4] is recorded as 85,2%. The “Wirksamkeit in % Substanz +Talcord” value under setting [5] is 49,4%.
On to `c1ccc(OCCN2CCCCC2)cc1` [N-2-Phenoxi-ethyl-(1)-piperidin], for which the “Synergistischer Faktor bei Ripcord” value under setting [1] was 2,54. Further, the “Synergistischer Faktor bei Talcord” value under setting [2] is on record as 6,60. Under setting [3], the “Wirksamkeit in % Substanz allein” value was 4,0%. Also, under setting [4], the “Wirksamkeit in % Substanz +Ripcord” value is 84,0%. Further, the “Wirksamkeit in % Substanz +Talcord” value under setting [5] is given as 68,0%.
As for `CCCCCCCCCC(C)N1CCCC1` (stereo not drawn) [N-2-Undecyl-pyrrolidin], under setting [3], the mortality at 1000 µg/mL amounted to 56%. The “Synergistischer Faktor bei Ripcord” value under setting [1] is recorded as 1,36. For the same compound, under setting [4], the “Wirksamkeit in % Substanz +Ripcord” value was 98,8%. Moreover, under setting [5], the “Wirksamkeit in % Substanz +Talcord” value is listed as 64,0%.
Consider `c1ccc(OCCCN2CCCCCC2)cc1` [N-3-Phenoxi-propyl-(1)-hexamethylenimin], for which, under setting [1], the “Synergistischer Faktor bei Ripcord” value is recorded as 2,03. Further, under setting [2], the “Synergistischer Faktor bei Talcord” value is on record as 3,42. Besides, the “Wirksamkeit in % Substanz allein” value under setting [3] was found to be 0%. The “Wirksamkeit in % Substanz +Ripcord” value under setting [4] was 64,0%. For the same compound, the “Wirksamkeit in % Substanz +Talcord” value under setting [5] was 33,2%.
For the compound `Clc1ccc(CN2CCCCC2)cc1` [N-4-Chlor-benzyl-piperidin], the “Synergistischer Faktor bei Ripcord” value under setting [1] is on record as 2,37. Further, the “Synergistischer Faktor bei Talcord” value under setting [2] was 4,82. Further, the “Wirksamkeit in % Substanz allein” value under setting [3] is 0%. Moreover, the “Wirksamkeit in % Substanz +Ripcord” value under setting [4] was 74,8%. Besides, the “Wirksamkeit in % Substanz +Talcord” value under setting [5] is listed as 46,8%.
For the compound `Clc1ccc(CN2CCCC2)cc1` [N-4-Chlor-benzyl-pyrrolidin], under “Pyrethroid : Amin 1 : 10”, the “Synergistischer Faktor bei Ripcord” value is recorded as 3,09 and the “Synergistischer Faktor bei Talcord” value was 7,55. Besides, under “180 min”, the “% Wirkung Substanz +Ripcord” value was 97,2% and the “% Wirkung Substanz +Talcord” value is reported as 73,2%. Where the note is “amine 0,1 mg/ml (as for Pyrethroid : Amin 1 : 10), 180 min”, the “% Wirkung Substanz allein” value was 0%. Further, the “Synergistischer Faktor bei Ripcord” value under setting [1] was 3,17. In addition, under setting [2], the “Synergistischer Faktor bei Talcord” value was 2,35. Besides, the “Wirksamkeit in % Substanz allein” value under setting [3] is 0%. In addition, the “Wirksamkeit in % Substanz +Ripcord” value under setting [4] was 100,0%. Besides, under setting [5], the “Wirksamkeit in % Substanz +Talcord” value was 22,8%.
Turning to `O=[N+]([O-])c1ccc(CN2CCCCC2)cc1` [N-4-Nitro-benzyl-piperidin], the mortality at 1000 µg/mL under setting [3] was 2.8%. Moreover, under setting [1], the “Synergistischer Faktor bei Ripcord” value is 1,47. In addition, the “Synergistischer Faktor bei Talcord” value under setting [2] was 1,77. Under setting [4], the “Wirksamkeit in % Substanz +Ripcord” value is 49,2%. Moreover, the “Wirksamkeit in % Substanz +Talcord” value under setting [5] is 20,0%.
Consider `CCCCOCCOCCN1CCCCCC1` [N-(2'-Butoxi-diethylether-(2))-hexamethylenimin], for which, for the setting “in vivo”, the “Synergistischer Faktor bei Ripcord” value is 2,50 and the “Synergistischer Faktor bei Talcord” value is 3,30. Also, under setting [7], the “Wirksamkeit in % Substanz +Ripcord” value is recorded as 78,8%, the “Wirksamkeit in % Substanz +Talcord” value was 32,0% and the “Wirksamkeit in % Substanz allein” value is 0%.
As for `c1ccc(COCCN2CCOCC2)cc1` [N-(2-Benzyloxi-ethyl-(1))-morpholin], the “Synergistischer Faktor bei Ripcord” value under setting [1] is 1,61. Moreover, the “Synergistischer Faktor bei Talcord” value under setting [2] is given as 3,30. The “Wirksamkeit in % Substanz allein” value under setting [3] was 0%. Moreover, the “Wirksamkeit in % Substanz +Ripcord” value under setting [4] is recorded as 50,8%. The “Wirksamkeit in % Substanz +Talcord” value under setting [5] is recorded as 32,0%.
For `c1ccc(OCCN2CCOCC2)cc1` [N-(2-Phenoxi-ethyl-(1))-morpholin] the same measures were 2,45, 6,47, 0%, 77,2% and 62,8%.
On to `CCC1CCCCN1Cc1ccccc1` (stereo not drawn) [N-Benzyl-2-ethyl-piperidin], for which the mortality at 1000 µg/mL under setting [3] came to 0%. Also, the “Synergistischer Faktor bei Ripcord” value under setting [1] is reported as 2,50. For the same compound, under setting [2], the “Synergistischer Faktor bei Talcord” value was 1,53. In addition, the “Wirksamkeit in % Substanz +Ripcord” value under setting [4] is 78,8%. The “Wirksamkeit in % Substanz +Talcord” value under setting [5] was 14,8%.
For `c1ccc(CN2CCOCC2)cc1` [N-Benzyl-morpholin], the mortality at 1000 µg/mL under setting [3] came out at 0%. Further, the “Synergistischer Faktor bei Ripcord” value under setting [1] was 1,43. In addition, under setting [2], the “Synergistischer Faktor bei Talcord” value is listed as 2,19. The “Wirksamkeit in % Substanz +Ripcord” value under setting [4] is reported as 45,2%. For the same compound, the “Wirksamkeit in % Substanz +Talcord” value under setting [5] is reported as 21,2%.
With `c1ccc(CN2CCCCC2)cc1` [N-Benzyl-piperidin], where the note is “180 min”, the “% Wirkung Substanz +Ripcord” value is 100,0% and the “% Wirkung Substanz +Talcord” value is on record as 73,2%. In addition, the mortality at 100 µg/mL under setting [6] was found to be 0%. For the same compound, the mortality at 1000 µg/mL under setting [3] is 0%. For the same compound, under setting [4], the “Wirksamkeit in % Substanz +Ripcord” value is listed as 94,8%. Further, the “Wirksamkeit in % Substanz +Talcord” value under setting [5] is given as 32,0%.
Consider `c1ccc(CN2CCCC2)cc1` [N-Benzyl-pyrrolidin], for which the mortality at 1000 µg/mL under setting [3] stood at 0%. The “Synergistischer Faktor bei Ripcord” value under setting [1] is 2,45. Further, the “Synergistischer Faktor bei Talcord” value under setting [2] was 1,65. Also, the “Wirksamkeit in % Substanz +Ripcord” value under setting [4] is recorded as 77,2%. Besides, the “Wirksamkeit in % Substanz +Talcord” value under setting [5] is 16,0%.
In the same order, the values of `C(=Cc1ccccc1)CN1CCOCC1` [N-Cinnamyl-morpholin] are 0%, 1,74, 4,54, 54,8% and 44,0%.
Turning to `C1CCCC(N2CCOCC2)CC1` [N-Cycloheptyl-morpholin], the mortality at 1000 µg/mL under setting [3] amounted to 0%. Further, the “Synergistischer Faktor bei Ripcord” value under setting [1] is 1,78. Further, under setting [2], the “Synergistischer Faktor bei Talcord” value is listed as 3,59. Moreover, under setting [4], the “Wirksamkeit in % Substanz +Ripcord” value is reported as 56,0%. For the same compound, under setting [5], the “Wirksamkeit in % Substanz +Talcord” value was 34,8%.
For `C1CCC(N2CCCC2)CC1` [N-Cyclohexyl-pyrrolidin] the same measures were 0%, 2,16, 1,72, 68,0% and 17,2%.

For the origin of these results see patent EP0029617A1, “Use of tertiary heterocyclic amines as synergists in pesticides; derivatives of cycloamines” (priority 1979, dated 1981).
